Reference: ChEMBL document CHEMBL1201862, “PubChem BioAssay data set” (2004)
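Briefly, cells in 96-well plates were exposed to five compound concentrations for 48 h, and endpoints were estimated by linear interpolation. Here, GI50 denotes the concentration required for 50% inhibition of growth.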 Calls of active or inactive are those of the source. No stated cut-off is given here; in the data, active = GI50 up to about 1.1 µM and inactive = higher. Non-standard residues stand in square brackets, D forms with d. Residues, ends and D or L forms follow the SMILES beside them. *: point of attachment. Bn2Val = CC(C)[C@@H](C(=O)*)N(Cc1ccccc1)Cc1ccccc1; NMeV = CN[C@H](C(=O)O)C(C)C; X32 = COc1ccc(CN*)c(OC)c1; dNMeA = CN[C@H](C)C(=O)O

Tests used:
Test in all cases: NCI tumour cell line growth inhibition, 48 h
786-0 = tested on: 786-0
A498 = tested on: A498
ACHN = tested on: ACHN
BT-549 = tested on: BT-549
COLO 205 = tested on: COLO 205
HL-60 = tested on: HL-60
HOP-62 = tested on: HOP-62
HOP-92 = tested on: HOP-92
IGROV-1 = tested on: IGROV-1
MDA-MB-231 = tested on: MDA-MB-231
MOLT-4 = tested on: MOLT-4
OVCAR-3 = tested on: OVCAR-3
OVCAR-8 = tested on: OVCAR-8
RXF 393 = tested on: RXF 393
SK-MEL-28 = tested on: SK-MEL-28
SNB-75 = tested on: SNB-75
SW-620 = tested on: SW-620
T47D = tested on: T47D
M14 = tested on: M14

| Structure (SMILES) | GI50 (786-0) | GI50 (A498) | GI50 (ACHN) | GI50 (BT-549) | GI50 (COLO 205) | GI50 (HL-60) | GI50 (HOP-62) | GI50 (HOP-92) | GI50 (IGROV-1) | GI50 (MDA-MB-231) | GI50 (MOLT-4) | GI50 (OVCAR-3) | GI50 (OVCAR-8) | GI50 (RXF 393) | GI50 (SK-MEL-28) | GI50 (SNB-75) | GI50 (SW-620) | GI50 (T47D) | GI50 (M14) |
| --- | --- | --- | --- | --- | --- | --- | --- | --- | --- | --- | --- | --- | --- | --- | --- | --- | --- | --- | --- |
| COC(=O)c1ccc(Oc2nc3ccc(C(F)(F)F)cc3nc2-c2ccccc2)cc1 | > 100 µM (inactive) | > 100 µM (inactive) | 56.9 µM (inactive) | > 100 µM (inactive) | > 100 µM (inactive) | > 100 µM (inactive) | > 100 µM (inactive) | > 100 µM (inactive) | > 100 µM (inactive) | > 100 µM (inactive) | 66.4 µM (inactive) | > 100 µM (inactive) | > 100 µM (inactive) | 74.5 µM (inactive) | > 100 µM (inactive) | > 100 µM (inactive) | > 100 µM (inactive) | 56.2 µM (inactive) | – |
| Cc1nc(O)c2c3c(sc2n1)CCCC3 | 35.9 µM (inactive) | > 100 µM (inactive) | 54.5 µM (inactive) | > 100 µM (inactive) | > 100 µM (inactive) | > 100 µM (inactive) | > 100 µM (inactive) | > 100 µM (inactive) | > 100 µM (inactive) | > 100 µM (inactive) | > 100 µM (inactive) | > 100 µM (inactive) | > 100 µM (inactive) | > 100 µM (inactive) | > 100 µM (inactive) | > 100 µM (inactive) | > 100 µM (inactive) | > 100 µM (inactive) | > 100 µM (inactive) |
| COc1ccc(Cn2c3ccc([N+](=O)[O-])cc3c(=O)n2Cc2ccccn2)cc1 | > 100 µM (inactive) | > 100 µM (inactive) | 87.9 µM (inactive) | > 100 µM (inactive) | > 100 µM (inactive) | 28.9 µM (inactive) | > 100 µM (inactive) | 90.6 µM (inactive) | > 100 µM (inactive) | > 100 µM (inactive) | 31.3 µM (inactive) | > 100 µM (inactive) | 57.7 µM (inactive) | 86.5 µM (inactive) | > 100 µM (inactive) | 37.8 µM (inactive) | > 100 µM (inactive) | 18.2 µM (inactive) | 46 µM (inactive) |
| Cc1ccc(S(=O)(=O)Oc2coc(CO)cc2=O)cc1 | 6.38 µM (inactive) | 15.5 µM (inactive) | 18 µM (inactive) | 13.8 µM (inactive) | 14.3 µM (inactive) | 3.14 µM (inactive) | 14.7 µM (inactive) | 16 µM (inactive) | 9.29 µM (inactive) | 18.6 µM (inactive) | 13.4 µM (inactive) | 15.3 µM (inactive) | 17.6 µM (inactive) | 13.5 µM (inactive) | 17.3 µM (inactive) | 14.2 µM (inactive) | 12.3 µM (inactive) | 13.3 µM (inactive) | 13.1 µM (inactive) |
| Cc1ccnc2nc(-c3ccc(Cl)cc3)cc(O)c12 | 4.46 µM (inactive) | 3.65 µM (inactive) | > 24.9 µM (inactive) | > 100 µM (inactive) | 2.33 µM (inactive) | 1.58 µM (inactive) | 8.41 µM (inactive) | 2.17 µM (inactive) | 3.01 µM (inactive) | 14.8 µM (inactive) | 3.99 µM (inactive) | 4.89 µM (inactive) | > 27 µM (inactive) | 8.45 µM (inactive) | 7.78 µM (inactive) | 2.17 µM (inactive) | 3.35 µM (inactive) | > 24.5 µM (inactive) | 8.63 µM (inactive) |
| N#Cc1cnn2c1n[n+]([O-])c1ccc(Cl)cc12 | 27.4 µM (inactive) | 19.3 µM (inactive) | 5.79 µM (inactive) | 12.8 µM (inactive) | 16.6 µM (inactive) | 2.86 µM (inactive) | 15.2 µM (inactive) | 2.19 µM (inactive) | 4.14 µM (inactive) | 15.1 µM (inactive) | 7.31 µM (inactive) | 2.96 µM (inactive) | 11.5 µM (inactive) | 15 µM (inactive) | 13.2 µM (inactive) | 6.9 µM (inactive) | 9.14 µM (inactive) | 17.3 µM (inactive) | 8.13 µM (inactive) |
| COc1ccc2c(c1)CN([C@@H](C)[C@H]1CC[C@H]3[C@@H]4CC[C@H]5C[C@@H](O)CC[C@]5(C)[C@H]4CC[C@]13C)CO2 | 1.3 µM (inactive) | 1.88 µM (inactive) | 3.21 µM (inactive) | 3.38 µM (inactive) | 2 µM (inactive) | 2.47 µM (inactive) | 2 µM (inactive) | 1.74 µM (inactive) | 3.95 µM (inactive) | 2.42 µM (inactive) | 1.03 µM (active) | 5.79 µM (inactive) | 2.71 µM (inactive) | 1.19 µM (inactive) | 2.48 µM (inactive) | 2.37 µM (inactive) | 2.92 µM (inactive) | 3.56 µM (inactive) | 1.57 µM (inactive) |
| CS(=O)(=O)Nc1ccc2c(c1)N(S(C)(=O)=O)CC2COS(C)(=O)=O (stereo not given) | 31 µM (inactive) | 85.9 µM (inactive) | 35.7 µM (inactive) | 50.4 µM (inactive) | > 100 µM (inactive) | 25.2 µM (inactive) | 31.1 µM (inactive) | 33.2 µM (inactive) | > 100 µM (inactive) | > 100 µM (inactive) | 32.5 µM (inactive) | 34.6 µM (inactive) | 94.4 µM (inactive) | 18.7 µM (inactive) | > 100 µM (inactive) | 57.7 µM (inactive) | 32.2 µM (inactive) | > 100 µM (inactive) | – |
| CC#CC(O)(C(=O)OCCCN(C)C)C1CCCCC1 (stereo not given) | > 100 µM (inactive) | > 100 µM (inactive) | > 100 µM (inactive) | > 100 µM (inactive) | > 100 µM (inactive) | > 100 µM (inactive) | > 100 µM (inactive) | > 100 µM (inactive) | > 100 µM (inactive) | > 100 µM (inactive) | > 100 µM (inactive) | > 100 µM (inactive) | > 100 µM (inactive) | > 100 µM (inactive) | > 100 µM (inactive) | > 100 µM (inactive) | > 100 µM (inactive) | > 100 µM (inactive) | > 100 µM (inactive) |
| CC(C)(C)C1CCC2c3c([nH]c4ccccc34)C3C(=O)N(c4ccc([N+](=O)[O-])cc4)C(=O)C3C2C1 (stereo not given) | 5.11 µM (inactive) | 24.3 µM (inactive) | 36.6 µM (inactive) | 16.2 µM (inactive) | 8.71 µM (inactive) | 6.11 µM (inactive) | 16.4 µM (inactive) | 2.7 µM (inactive) | 11.5 µM (inactive) | 17.8 µM (inactive) | 5.28 µM (inactive) | 10.7 µM (inactive) | 19 µM (inactive) | 10.4 µM (inactive) | 96.6 µM (inactive) | 16.9 µM (inactive) | 21 µM (inactive) | 13.9 µM (inactive) | 23.9 µM (inactive) |
| CC(C)CNC(=O)c1c(NC(=O)c2ccccc2)sc2[nH]c(=O)n(-c3ccccc3)c(=O)c12 | 16.8 µM (inactive) | 27.5 µM (inactive) | 13.8 µM (inactive) | 26.4 µM (inactive) | > 100 µM (inactive) | 68.9 µM (inactive) | 15.3 µM (inactive) | 5.09 µM (inactive) | 74.3 µM (inactive) | 23.2 µM (inactive) | 51.3 µM (inactive) | > 100 µM (inactive) | > 100 µM (inactive) | 16.6 µM (inactive) | > 100 µM (inactive) | 17.8 µM (inactive) | > 100 µM (inactive) | 89.3 µM (inactive) | 91.2 µM (inactive) |
| COc1ccc(CNC(=O)[C@@H]2CCCN2C(=O)[C@@H](C)N(C)C(=O)[C@H](C(C)C)N(C)C(=O)[C@@H](NC(=O)[C@H](C(C)C)N(Cc2ccccc2)Cc2ccccc2)C(C)C)c(OC)c1 (Bn2Val-V[NMeV][dNMeA]P-X32) | 3.28 µM (inactive) | 2.96 µM (inactive) | 3.75 µM (inactive) | 2.56 µM (inactive) | 2.29 µM (inactive) | 0.0561 µM (active) | 4.91 µM (inactive) | 2.74 µM (inactive) | 3.4 µM (inactive) | 1.51 µM (inactive) | – | 3.63 µM (inactive) | 6.41 µM (inactive) | 1.85 µM (inactive) | 3.29 µM (inactive) | 1.52 µM (inactive) | 3.5 µM (inactive) | 10.6 µM (inactive) | 2.84 µM (inactive) |
| Cc1ccnc2c1ccc1nc3ccccc3n12 | 52.6 µM (inactive) | > 100 µM (inactive) | – | 63.5 µM (inactive) | > 100 µM (inactive) | 85.3 µM (inactive) | 89.7 µM (inactive) | 85.1 µM (inactive) | 25.5 µM (inactive) | 54.7 µM (inactive) | > 100 µM (inactive) | > 100 µM (inactive) | 28.9 µM (inactive) | 56.2 µM (inactive) | – | 31.7 µM (inactive) | > 100 µM (inactive) | 18.5 µM (inactive) | > 100 µM (inactive) |
| CC1CCC2(O)C3(C)CC4(O)OC2(C1O)C1(O)C3(O)C(OC(=O)c2ccc[nH]2)C(O)(C(C)C)C41C (stereo not given) | > 100 µM (inactive) | > 100 µM (inactive) | > 100 µM (inactive) | > 100 µM (inactive) | > 100 µM (inactive) | > 65.8 µM (inactive) | > 100 µM (inactive) | > 100 µM (inactive) | > 100 µM (inactive) | > 100 µM (inactive) | – | > 100 µM (inactive) | > 100 µM (inactive) | > 100 µM (inactive) | > 100 µM (inactive) | > 100 µM (inactive) | > 100 µM (inactive) | > 100 µM (inactive) | > 100 µM (inactive) |
